Source: the supplement of paper PMC10307832

Legend:
ALW-II-49-7 = compound: Cc1ccc(C(=O)Nc2cccc(C(F)(F)F)c2)cc1Nc1cncc(C(N)=O)c1 [ALW-II-49-7]; assay: relative viability (nuclei count vs DMSO), 5 days (fraction); higher = more cells survive
Outline: (§1)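 For viability, nuclei in each treated well were divided by nuclei in vehicle wells and the median across plates was taken. Lung cancer cell lines in 1536-well plates were pinned with five library-drug doses (not always all listed) spaced by √10, cultured 5 days without medium change, and imaged at 4× after Hoechst staining, with plates passing only at control CV below 25% and at least one doubling.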

Dasatinib = compound: Cc1nc(Nc2ncc(C(=O)Nc3c(C)cccc3Cl)s2)cc(N2CCN(CCO)CC2)n1 [Dasatinib]; assay: as above
Outline: as §1

Row | Cell Line | relative viability (ALW-II-49-7; 0.08 µM) | relative viability (ALW-II-49-7; 0.253 µM) | relative viability (ALW-II-49-7; 0.8 µM) | relative viability (ALW-II-49-7; 2.53 µM) | relative viability (ALW-II-49-7; 8 µM) | relative viability (Dasatinib; 0.005 µM) | relative viability (Dasatinib; 0.01581 µM) | relative viability (Dasatinib; 0.05 µM) | relative viability (Dasatinib; 0.075 µM, anchor plate) | relative viability (Dasatinib; 0.1581 µM) | relative viability (Dasatinib; 0.5 µM)
1 | NCI-H1734 | 0.933 | 1.04 | 1.01 | 0.886 | 0.822 | 0.863 | 0.772 | 0.777 | 0.481 | 0.508 | 0.51
2 | NCI-H1395 | 0.941 | 0.992 | 1.1 | 0.917 | 0.851 | 0.91 | 1.03 | 0.783 | 0.435 | 0.442 | 0.429
3 | HOP-62 | 1.1 | 1.03 | 0.941 | 0.82 | 0.786 | 1.06 | 1 | 0.932 | 0.68 | 0.945 | 0.367
4 | LK-2 | 1.03 | 0.971 | 1 |  | 0.926 | 0.943 | 0.569 | 0.587 | 0.311 | 0.297 | 0.257
5 | SW 1573 | 0.976 | 1.12 | 1.04 | 1.05 | 0.938 | 0.931 | 0.915 | 0.839 | 0.517 | 0.672 | 0.564
6 | NCI-H1299 | 1.05 | 1.05 | 0.938 | 0.921 | 0.843 | 1.04 | 0.996 | 0.998 |  | 0.886 | 0.263
7 | SK-LU-1 | 1.04 | 1.11 | 1.07 | 0.769 | 0.746 | 0.823 | 0.542 | 0.42 | 0.174 | 0.312 | 0.25
8 | NCI-H23 | 0.936 | 0.978 | 0.907 | 1.06 | 0.865 | 0.923 | 0.857 | 0.858 | 0.866 | 0.6 | 0.482
9 | NCI-H1355 | 0.939 | 0.963 | 0.953 | 0.957 | 0.928 | 1 | 0.83 | 0.998 | 0.731 | 0.781 | 0.582
10 | COR-L23 | 1.05 | 0.969 | 0.904 | 0.892 | 1.02 | 1.01 | 0.852 | 0.923 | 0.477 | 0.614 | 0.519
11 | A549 | 1.08 | 0.966 | 0.891 | 1.02 | 0.947 | 0.989 | 0.85 | 0.914 |  | 0.626 | 0.346
12 | NCI-H2023 | 0.965 | 0.963 | 0.995 | 0.96 | 0.911 | 0.883 | 0.888 | 0.735 | 0.592 | 0.648 | 0.593
13 | A-427 | 0.962 | 1.02 | 0.952 | 1.01 | 0.93 | 0.983 | 0.889 | 0.811 | 0.698 | 0.634 | 0.623
14 | NCI-H1793 | 0.984 | 0.894 | 0.757 | 0.836 | 0.934 | 0.635 | 0.543 | 0.537 | 0.391 | 0.457 | 0.414
15 | NCI-H596 | 0.913 | 0.988 | 0.941 | 0.893 | 0.829 | 0.978 | 0.788 | 0.736 | 0.631 | 0.551 | 0.453
16 | LU99A | 0.816 | 1.1 | 0.902 | 0.94 | 0.95 | 0.807 | 0.629 | 0.896 | 0.539 | 0.663 | 0.48
17 | IA-LM | 0.939 | 0.74 | 0.744 | 0.504 | 0.305 | 1.01 | 0.994 | 1 |  | 0.781 | 0.564
18 | NCI-H2009 | 0.967 | 1.04 | 0.93 | 0.844 | 0.709 | 1.07 | 0.988 | 0.929 | 0.303 | 0.456 | 0.236
